In the experiment the target is PAS domain-containing serine/threonine-protein kinase (Homo sapiens, UniProt Q96RG2). As to the kind of experiment: PAS Kinase FRET Assay: The aim of the FRET assay is to determine the inhibition potential of test compounds on targeted kinase. This assay platform provides a homogenous screening method for measuring kinase activity by quantitating the amount of phospho-substrate in solution following a kinase reaction.In the presence of kinase and ATP, the Ulight-peptide is phosphorylated and captured by an anti-phospho-substrate antibody, which brings the Eu chelate donor and Ulight acceptor dyes into close proximity. Upon excitation at 340 nm, the Eu chelate transfers its energy to the Ulight dye, resulting in a fluorescent light emission at 665 nm.Titration of kinase at 1 mM ATP was achieved via the following protocol. After making serial three-fold dilutions of PASK (Invitrogen) in reaction buffer across the plate; 5 μl of kinase dilution and 5 μl substrate/ATP mix were added to the wells of the white Optiplate-384 (PerkinElmer). The contents of the plate were and incubated at RT for 1 h. The reaction was stopped by adding 5 μl of stop solution to each test well followed by mixing and incubation at RT for 10 minutes. 5 μl of detection mix (detection antibody diluted in detection buffer) was added; the contents of the plate were mixed and then incubated in the dark for 1 hour at RT. The signal was recorded at TR-FRET mode (665 nm/615 nm). The results were graphed to calculate the EC50. […].

Some results are limits rather than exact numbers.

Sequence of PAS domain-containing serine/threonine-protein kinase (Q96RG2 whole entry, the tested form may be a part): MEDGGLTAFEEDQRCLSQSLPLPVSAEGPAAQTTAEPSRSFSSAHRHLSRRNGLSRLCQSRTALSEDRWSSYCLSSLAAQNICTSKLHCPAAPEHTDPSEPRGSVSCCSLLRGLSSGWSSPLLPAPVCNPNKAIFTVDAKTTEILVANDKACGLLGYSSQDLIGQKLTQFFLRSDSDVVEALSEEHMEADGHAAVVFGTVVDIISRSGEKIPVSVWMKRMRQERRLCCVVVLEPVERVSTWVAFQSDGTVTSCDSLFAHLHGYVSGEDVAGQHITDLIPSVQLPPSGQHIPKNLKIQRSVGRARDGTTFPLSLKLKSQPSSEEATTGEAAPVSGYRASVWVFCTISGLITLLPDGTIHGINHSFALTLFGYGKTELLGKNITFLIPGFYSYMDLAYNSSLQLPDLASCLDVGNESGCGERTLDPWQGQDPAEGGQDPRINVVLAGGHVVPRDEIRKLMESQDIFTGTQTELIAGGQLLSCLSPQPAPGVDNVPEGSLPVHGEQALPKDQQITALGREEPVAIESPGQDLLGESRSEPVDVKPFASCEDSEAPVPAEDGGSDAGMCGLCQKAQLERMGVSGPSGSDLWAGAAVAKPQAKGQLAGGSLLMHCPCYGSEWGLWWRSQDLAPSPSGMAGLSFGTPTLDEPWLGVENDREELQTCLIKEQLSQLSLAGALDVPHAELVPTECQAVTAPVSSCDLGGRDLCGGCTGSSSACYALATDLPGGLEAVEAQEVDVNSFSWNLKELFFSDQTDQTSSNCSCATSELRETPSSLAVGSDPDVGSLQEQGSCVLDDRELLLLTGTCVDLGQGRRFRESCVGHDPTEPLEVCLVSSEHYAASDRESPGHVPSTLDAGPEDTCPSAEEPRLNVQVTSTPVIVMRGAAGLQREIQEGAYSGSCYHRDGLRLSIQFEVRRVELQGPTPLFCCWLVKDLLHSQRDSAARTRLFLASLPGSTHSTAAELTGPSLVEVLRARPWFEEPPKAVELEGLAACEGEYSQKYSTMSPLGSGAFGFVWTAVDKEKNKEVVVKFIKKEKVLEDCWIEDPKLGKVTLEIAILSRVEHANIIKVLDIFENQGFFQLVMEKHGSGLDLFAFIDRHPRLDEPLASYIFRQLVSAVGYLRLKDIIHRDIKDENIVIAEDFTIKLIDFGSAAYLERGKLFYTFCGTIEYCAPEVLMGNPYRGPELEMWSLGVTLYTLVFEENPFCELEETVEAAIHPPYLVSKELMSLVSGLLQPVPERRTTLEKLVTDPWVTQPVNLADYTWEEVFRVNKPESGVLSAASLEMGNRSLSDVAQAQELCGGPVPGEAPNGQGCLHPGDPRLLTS

Regarding `CN(c1nc2cc(C(=O)O)ccc2nc1-c1ccc(F)cc1)C1CCNCC1`, the IC50 is below 10 µM.

The IC50 is the point on the concentration scale where inhibition reaches its midpoint.
